Patent US12496309B2, “Method for treatment of pancreatitis” (NovMetaPharma Co., Ltd., priority 2020, dated 2025)

Tests used:
ERRα = ERRα (Homo sapiens, UniProt P11474); assay: ERRα binding selectivity
ERα = ERα (Homo sapiens, UniProt P03372); assay: ERα binding selectivity
Water solubility = assay type: physicochemical
CYP = CYP inhibition, all isoforms; assay type: in vitro ADME
hERG [1] = target: T1, hERG (Homo sapiens, UniProt Q12809); assay: hERG binding
hERG [2] = target: T1, hERG; assay: hERG current; assay type: cell-based
[3] = MS (microsomal stability) h; assay type: in vitro ADME, human
[4] = MS (microsomal stability) d; assay type: in vitro ADME, dog
[5] = MS (microsomal stability) r; assay type: in vitro ADME, rat
[6] = MS (microsomal stability) m; assay type: in vitro ADME, mouse
Permeability (PAMPA) = assay type: in vitro ADME; conditions: for Papp: PAMPA
PK = assay type: in vivo; conditions: for Cmax / PK BA % / clearance / half-life / Vd: in vivo; for clearance: read-out: PK CL; for half-life: read-out: PK T½ (converted); for Vd: read-out: PK Vss
CYP 1A2 = CYP 1A2 (Homo sapiens, UniProt P05177); assay: CYP inhibition 1A2; assay type: in vitro ADME
Chain of CYP 1A2 (P05177 whole entry): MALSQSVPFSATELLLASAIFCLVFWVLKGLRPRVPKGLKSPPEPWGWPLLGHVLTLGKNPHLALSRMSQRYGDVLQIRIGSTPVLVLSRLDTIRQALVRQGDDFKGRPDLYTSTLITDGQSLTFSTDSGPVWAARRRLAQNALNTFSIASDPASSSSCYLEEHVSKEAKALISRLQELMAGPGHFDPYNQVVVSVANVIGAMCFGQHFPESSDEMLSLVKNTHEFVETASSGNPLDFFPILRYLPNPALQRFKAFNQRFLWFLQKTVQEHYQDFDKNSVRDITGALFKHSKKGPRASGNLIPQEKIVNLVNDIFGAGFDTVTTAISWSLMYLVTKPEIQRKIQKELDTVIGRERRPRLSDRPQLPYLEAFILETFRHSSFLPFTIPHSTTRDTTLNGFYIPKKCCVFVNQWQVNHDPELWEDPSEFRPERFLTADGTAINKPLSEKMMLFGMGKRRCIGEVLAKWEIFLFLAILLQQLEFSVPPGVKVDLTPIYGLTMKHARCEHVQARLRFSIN

CYP 2C9 = CYP 2C9 (Homo sapiens, UniProt P11712); assay: CYP inhibition 2C9; assay type: in vitro ADME
Chain of CYP 2C9 (P11712 whole entry): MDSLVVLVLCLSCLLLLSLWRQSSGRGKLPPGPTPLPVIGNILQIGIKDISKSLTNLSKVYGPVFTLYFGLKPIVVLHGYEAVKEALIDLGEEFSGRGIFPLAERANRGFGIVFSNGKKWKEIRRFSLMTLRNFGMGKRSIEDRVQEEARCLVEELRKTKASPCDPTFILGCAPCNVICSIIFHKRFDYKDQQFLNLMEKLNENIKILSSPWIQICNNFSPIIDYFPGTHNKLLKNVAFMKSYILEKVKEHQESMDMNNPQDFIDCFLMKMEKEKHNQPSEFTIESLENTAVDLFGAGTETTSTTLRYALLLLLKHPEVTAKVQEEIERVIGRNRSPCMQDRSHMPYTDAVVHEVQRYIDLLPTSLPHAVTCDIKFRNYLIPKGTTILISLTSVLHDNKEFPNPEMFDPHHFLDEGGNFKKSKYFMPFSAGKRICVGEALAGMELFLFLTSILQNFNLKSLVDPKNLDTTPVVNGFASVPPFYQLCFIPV

CYP 2C19 = CYP 2C19 (Homo sapiens, UniProt P33261); assay: CYP inhibition 2C19; assay type: in vitro ADME
Chain of CYP 2C19 (P33261 whole entry): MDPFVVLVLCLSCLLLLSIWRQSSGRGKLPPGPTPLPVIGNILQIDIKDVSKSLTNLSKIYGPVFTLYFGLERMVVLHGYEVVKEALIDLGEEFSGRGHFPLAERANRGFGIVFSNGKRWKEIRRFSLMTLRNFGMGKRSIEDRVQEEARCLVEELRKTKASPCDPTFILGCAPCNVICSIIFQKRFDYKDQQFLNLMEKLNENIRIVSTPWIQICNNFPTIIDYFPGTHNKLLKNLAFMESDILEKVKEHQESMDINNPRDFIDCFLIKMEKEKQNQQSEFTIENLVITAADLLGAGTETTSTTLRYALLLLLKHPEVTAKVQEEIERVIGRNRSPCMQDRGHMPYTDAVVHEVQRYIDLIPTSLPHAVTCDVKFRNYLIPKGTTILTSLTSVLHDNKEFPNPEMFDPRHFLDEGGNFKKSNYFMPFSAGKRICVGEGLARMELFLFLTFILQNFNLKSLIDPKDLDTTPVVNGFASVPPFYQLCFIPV

CYP 2D6 = CYP 2D6 (Homo sapiens, UniProt P10635); assay: CYP inhibition 2D6; assay type: in vitro ADME
Chain of CYP 2D6 (P10635 whole entry): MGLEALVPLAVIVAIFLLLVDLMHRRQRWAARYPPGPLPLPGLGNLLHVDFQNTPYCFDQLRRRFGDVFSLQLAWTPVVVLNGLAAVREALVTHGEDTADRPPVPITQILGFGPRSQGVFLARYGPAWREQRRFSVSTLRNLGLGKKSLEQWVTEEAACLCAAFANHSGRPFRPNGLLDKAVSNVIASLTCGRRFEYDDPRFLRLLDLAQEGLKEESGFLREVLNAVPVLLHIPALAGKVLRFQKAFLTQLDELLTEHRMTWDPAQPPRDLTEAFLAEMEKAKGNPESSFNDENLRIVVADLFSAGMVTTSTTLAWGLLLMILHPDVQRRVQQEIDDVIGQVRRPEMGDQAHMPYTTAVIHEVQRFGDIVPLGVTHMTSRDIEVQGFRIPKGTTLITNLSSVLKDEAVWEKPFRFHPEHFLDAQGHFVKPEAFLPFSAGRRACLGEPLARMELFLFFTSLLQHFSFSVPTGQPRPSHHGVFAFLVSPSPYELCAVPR

CYP 3A4 = CYP 3A4 (Homo sapiens, UniProt P08684); assay: CYP inhibition 3A4; assay type: in vitro ADME
Chain of CYP 3A4 (P08684 whole entry): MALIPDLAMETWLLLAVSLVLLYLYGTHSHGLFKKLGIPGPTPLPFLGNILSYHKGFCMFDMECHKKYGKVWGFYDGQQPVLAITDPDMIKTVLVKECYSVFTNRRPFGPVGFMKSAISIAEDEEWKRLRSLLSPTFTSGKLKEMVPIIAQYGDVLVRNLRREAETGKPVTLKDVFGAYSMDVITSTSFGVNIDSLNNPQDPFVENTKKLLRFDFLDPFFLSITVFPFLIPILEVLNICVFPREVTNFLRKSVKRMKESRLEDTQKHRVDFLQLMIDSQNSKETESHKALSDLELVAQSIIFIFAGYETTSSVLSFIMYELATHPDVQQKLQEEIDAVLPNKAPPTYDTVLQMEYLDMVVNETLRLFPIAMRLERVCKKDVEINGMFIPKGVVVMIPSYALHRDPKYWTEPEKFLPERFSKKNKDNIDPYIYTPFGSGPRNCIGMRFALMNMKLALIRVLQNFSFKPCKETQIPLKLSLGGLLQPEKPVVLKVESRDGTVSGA

Single dose toxicity = conditions: in vivo, read-out: Single dose Tax, LD50
Description: Next, the inventors analyzed the toxicity of these compounds in vivo (Table 3). […]

ERRγ [7] = target: T2, ERRγ (Homo sapiens, UniProt P62508); assay: ERRγ binding
T2 sequence (P62508 1-458): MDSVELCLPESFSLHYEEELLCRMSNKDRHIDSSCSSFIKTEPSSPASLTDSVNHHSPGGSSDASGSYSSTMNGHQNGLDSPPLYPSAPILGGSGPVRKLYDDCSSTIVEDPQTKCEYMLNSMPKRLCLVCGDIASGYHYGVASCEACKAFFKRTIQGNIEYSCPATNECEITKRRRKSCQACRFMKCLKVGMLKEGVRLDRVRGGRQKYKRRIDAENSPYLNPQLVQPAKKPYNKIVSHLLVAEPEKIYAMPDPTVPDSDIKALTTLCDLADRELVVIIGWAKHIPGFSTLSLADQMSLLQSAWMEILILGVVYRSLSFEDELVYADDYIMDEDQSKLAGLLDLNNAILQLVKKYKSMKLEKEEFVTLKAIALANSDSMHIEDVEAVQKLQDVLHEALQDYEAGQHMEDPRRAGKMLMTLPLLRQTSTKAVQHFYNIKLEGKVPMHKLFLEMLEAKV

ERRγ [8] = target: T2, ERRγ; assay: ERRγ functional assay; assay type: biochemical
Plasma stability h = assay type: in vitro ADME, human
Plasma stability r = assay type: in vitro ADME, rat
[9] = tested on: Caerulein-induced acute pancreatitis; assay: Caerulein-induced model of acute pancreatitis; assay type: in vivo, mouse; conditions: 20 mg/kg
Procedure: (§1) • Materials: Caerulein (C9026) and Taurolithocholic acid 3-sulfate disodium salt (TLCS; T0512) was purchased from Sigma. • Animal models: Eight to ten-week male C57BL/6 mice (Jackson Lab) were used according to an animal protocol approved by the Institutional Animal Care and Use Committee of Kyungpook National University. 1. Caerulein-Induced Model of Pancreatitis
Acute pancreatitis (AP) was induced by intraperitoneal injections of caerulein at 50 μg/kg/h given 6 times.
(§2) Upon completion of experiments with above-mentioned animal models (1) and (2), pancreas tissue were snap frozen in liquid nitrogen and stored at −80° C. for analysis of trypsin activity, for protein analysis by Western blots and for gene expression analysis by RT-qPCR. Pancreas were dissected and fixed in 10% neutral-buffered formalin and embedded in paraffin. Five-μm sections were prepared and stained with hematoxylin and eosin (H&E). Pancreas injury was determined by measuring serum amylase (K711-100, Biovision), serum lipase (MAK046, Sigma) and pancreatic tissue trypsin activity (Biovision) was determined using commercially available kit.
Next, the inventors analyzed the efficacy of the compound of Chemical Formula 1 in vivo using two different animal models of acute pancreatitis. […] They pretreated mice with a single dose of compound of Chemical Formula 1, 24 hours prior to Caerulein challenge. An additional dose of compound of Chemical Formula 1 was administered to the animals at the beginning of Caerulein challenge. Upon completion of the experimental timeline, these animals were sacrificed and serum and pancreas tissue samples were collected and analyzed.

[10] = tested on: TLCS-induced acute pancreatitis; assay: Intraductal bile acid (TLCS) infusion model of pancreatitis; assay type: in vivo, mouse; conditions: 20 mg/kg
Description: as §1, §2
Upon completion of the experimental timeline, these animals were sacrificed and serum and pancreas tissue samples were collected and analyzed.

T1 sequence (Q12809 whole entry): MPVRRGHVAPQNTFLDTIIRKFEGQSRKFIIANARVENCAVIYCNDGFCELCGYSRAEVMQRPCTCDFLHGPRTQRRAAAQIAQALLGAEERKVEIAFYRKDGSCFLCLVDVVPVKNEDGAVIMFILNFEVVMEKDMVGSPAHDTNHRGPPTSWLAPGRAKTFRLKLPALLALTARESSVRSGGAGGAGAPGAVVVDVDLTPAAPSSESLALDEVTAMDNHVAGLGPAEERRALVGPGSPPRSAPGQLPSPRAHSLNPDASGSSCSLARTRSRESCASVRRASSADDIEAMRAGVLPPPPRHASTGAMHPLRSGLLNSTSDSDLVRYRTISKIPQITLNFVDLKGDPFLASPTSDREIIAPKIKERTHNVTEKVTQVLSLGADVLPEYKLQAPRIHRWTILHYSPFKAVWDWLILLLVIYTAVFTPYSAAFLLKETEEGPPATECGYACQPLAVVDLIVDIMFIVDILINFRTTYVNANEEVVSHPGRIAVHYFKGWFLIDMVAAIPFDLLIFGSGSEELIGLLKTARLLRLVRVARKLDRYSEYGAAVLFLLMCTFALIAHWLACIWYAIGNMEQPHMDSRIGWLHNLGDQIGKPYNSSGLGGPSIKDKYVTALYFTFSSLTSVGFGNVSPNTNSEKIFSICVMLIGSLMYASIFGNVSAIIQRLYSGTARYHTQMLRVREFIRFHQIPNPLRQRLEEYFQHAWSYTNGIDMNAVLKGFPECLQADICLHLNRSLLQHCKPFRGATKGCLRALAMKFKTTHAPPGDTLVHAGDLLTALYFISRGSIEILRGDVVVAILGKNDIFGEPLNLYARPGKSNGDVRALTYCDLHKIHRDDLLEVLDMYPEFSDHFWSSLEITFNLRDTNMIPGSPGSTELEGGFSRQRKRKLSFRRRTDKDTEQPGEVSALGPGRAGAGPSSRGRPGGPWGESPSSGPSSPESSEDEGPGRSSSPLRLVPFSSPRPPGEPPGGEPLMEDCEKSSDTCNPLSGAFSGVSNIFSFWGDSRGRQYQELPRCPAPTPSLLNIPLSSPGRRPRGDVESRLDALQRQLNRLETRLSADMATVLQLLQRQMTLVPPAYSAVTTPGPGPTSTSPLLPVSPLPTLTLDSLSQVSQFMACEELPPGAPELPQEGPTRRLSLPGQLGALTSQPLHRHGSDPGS
Chain of ERα (P03372 whole entry): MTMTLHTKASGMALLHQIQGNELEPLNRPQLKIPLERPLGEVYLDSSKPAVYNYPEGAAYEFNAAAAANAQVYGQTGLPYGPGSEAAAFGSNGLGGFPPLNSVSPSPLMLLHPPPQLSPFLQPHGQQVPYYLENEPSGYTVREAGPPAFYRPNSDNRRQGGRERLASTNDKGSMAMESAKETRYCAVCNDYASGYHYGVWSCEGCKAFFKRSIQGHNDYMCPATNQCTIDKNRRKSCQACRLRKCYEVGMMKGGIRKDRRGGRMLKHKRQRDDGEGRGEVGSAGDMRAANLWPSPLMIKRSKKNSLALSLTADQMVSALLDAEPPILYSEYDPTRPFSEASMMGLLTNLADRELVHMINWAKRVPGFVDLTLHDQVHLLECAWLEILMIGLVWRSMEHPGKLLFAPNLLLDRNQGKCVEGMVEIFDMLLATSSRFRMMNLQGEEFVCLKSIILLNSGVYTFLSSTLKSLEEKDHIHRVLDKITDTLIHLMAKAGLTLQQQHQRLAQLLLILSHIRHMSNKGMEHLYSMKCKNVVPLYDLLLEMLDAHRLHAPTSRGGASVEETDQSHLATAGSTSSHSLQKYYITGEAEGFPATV
Chain of ERRα (P11474 whole entry): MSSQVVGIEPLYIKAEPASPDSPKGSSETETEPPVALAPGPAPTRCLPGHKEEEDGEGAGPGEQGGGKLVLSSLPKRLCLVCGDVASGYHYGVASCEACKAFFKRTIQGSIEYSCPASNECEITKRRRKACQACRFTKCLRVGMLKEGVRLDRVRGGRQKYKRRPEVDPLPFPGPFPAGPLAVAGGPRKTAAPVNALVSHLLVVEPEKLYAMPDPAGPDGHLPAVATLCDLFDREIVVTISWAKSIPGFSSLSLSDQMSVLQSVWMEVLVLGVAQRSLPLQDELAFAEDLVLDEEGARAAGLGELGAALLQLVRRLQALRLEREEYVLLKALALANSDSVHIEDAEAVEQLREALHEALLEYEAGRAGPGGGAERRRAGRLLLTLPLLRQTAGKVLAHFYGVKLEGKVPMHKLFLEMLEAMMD

OCCC/C(=C(/c1ccc(C2CCN(C3CC3)CC2)cc1)c1cccc(O)c1)c1ccccc1 [DMRC200966, (E)-5-(5-hydroxyphenyl)-5-(4-(N-cyclopropylpiperidin-4-yl)phenyl)-4-phenylpent-4-en-1-ol]
IC50 (ERRα): > 10 µM | IC50 (ERα): > 10 µM | solubility (Water solubility): > 1000 µg/mL | CYP (% remaining at 10 μM), All (CYP): OK All >83% | IC50 (hERG [1]): 17 µM | IC50 (hERG [2]): > 30 µM | MS (% of control) h [3]: 62 % of control | MS (% of control) d [4]: 57 % of control | MS (% of control) r [5]: 50 % of control | MS (% of control) m [6]: 25 % of control | Papp (Permeability (PAMPA)): 0.014 ×10⁻⁶ cm/s | Cmax (PK): 1510 nM | PK BA % (PK): 58.2% | clearance (PK): 45 mL/min/kg | half-life (PK): 1.8 h | Vd (PK): 4.6 L/kg | PK iv AUC (PK): 0.85 μMh | PK po AUC (PK): 4.93 μMh

OCCC/C(=C(\c1ccc(O)cc1)c1ccc(C2CCN(C3CC3)CC2)cc1)c1ccccc1 [DMRC200699, (E)-5-(4-hydroxyphenyl)-5-(4-(N-cyclopropylpiperidin-4-yl)phenyl)-4-phenylpent-4-en-1-ol]
solubility (Water solubility): > 1000 µg/mL | MS (% of control) d [4]: 92 % of control | MS (% of control) r [5]: 92 % of control | MS (% of control) m [6]: 84 % of control | Papp (Permeability (PAMPA)): 0.35 ×10⁻⁶ cm/s | Cmax (PK): 380 nM | PK BA % (PK): 46% | clearance (PK): 68 mL/min/kg | half-life (PK): 3 h | Vd (PK): 12 L/kg | PK iv AUC (PK): 0.50 μMh | PK po AUC (PK): 2.24 μMh

CN(C)CCOc1ccc(/C(=C(/CCCO)c2ccccc2)c2ccc(O)cc2)cc1 [GSK5182, reference compound]
solubility (Water solubility): > 1000 µg/mL | CYP (% remaining at 10 μM), All (CYP): OK All >73% | MS (% of control) h [3]: 43 % of control | MS (% of control) d [4]: 10 % of control | MS (% of control) r [5]: 26 % of control | MS (% of control) m [6]: 7 % of control | PK BA % (PK): 8.4% | clearance (PK): 44 mL/min/kg | PK iv AUC (PK): 0.89 μMh | PK po AUC (PK): 0.68 μMh

CC(C)N1CCN(c2ccc(/C(=C(/CCCO)c3ccccc3)c3cccc(O)c3)cc2)CC1 [DMRC2001000, (E)-5-(5-hydroxyphenyl)-5-(4-(4-isopropylpiperazin-1-yl)phenyl)-4-phenylpent-4-en-1-ol]
solubility (Water solubility): > 1000 µg/mL | CYP (% remaining at 10 μM) 1A2 (CYP 1A2): 100% | CYP (% remaining at 10 μM) 2C9 (CYP 2C9): 76% | CYP (% remaining at 10 μM) 2C19 (CYP 2C19): 100% | CYP (% remaining at 10 μM) 2D6 (CYP 2D6): 66% | CYP (% remaining at 10 μM) 3A4 (CYP 3A4): 3A4(48) % | MS (% of control) h [3]: 65 % of control | MS (% of control) d [4]: 61 % of control | MS (% of control) r [5]: 55 % of control | MS (% of control) m [6]: 27 % of control | Permeability (PAMPA) (Permeability (PAMPA)): 1.29 10^−6 cm/s | PK iv AUC (PK): 0.99 μMh | PK po AUC (PK): 4.18 μMh | LD50 (Single dose toxicity): > 2000 mg/kg

CC(C)N1CCN(c2ccc(/C(=C(/CCCO)c3ccccc3)c3ccc(O)cc3)cc2)CC1 [DMRC200434, (E)-5-(4-hydroxyphenyl)-5-(4-(4-isopropylpiperazin-1-yl)phenyl)-4-phenylpent-4-en-1-ol]
IC50 (ERRγ [7]): 0.04 µM | IC50 (ERRγ [8]): 0.006 µM | solubility (Water solubility): > 1000 µg/mL | CYP (% remaining at 10 μM), All (CYP): OK All >64% | IC50 (hERG [1]): > 10 µM | IC50 (hERG [2]): 21.3 µM | MS (% of control) h [3]: 27 % of control | MS (% of control) d [4]: 50 % of control | MS (% of control) r [5]: 33 % of control | MS (% of control) m [6]: 20 % of control | Plasma Stability (% of remaining after 2 h) h (Plasma stability h): 92.1% | Plasma Stability (% of remaining after 2 h) r (Plasma stability r): 97.1% | Papp (Permeability (PAMPA)): 0.46 ×10⁻⁶ cm/s | Cmax (PK): 208 nM | PK BA % (PK): 22% | clearance (PK): 75 mL/min/kg | half-life (PK): 3.7 h | Vd (PK): 16 L/kg | PK iv AUC (PK): 0.42 μMh | PK po AUC (PK): 0.82 μMh | LD50 (Single dose toxicity): > 2000 mg/kg | Caerulein-induced acute pancreatitis, overall outcome [9]: rescues mice | Serum amylase ([9]; 24 h before and at start of Caerulein, vs Caerulein alone): dramatic reduction | Pancreatic histopathology (H&E) ([9]; vs Caerulein alone): dramatically improved | Pancreatic tissue trypsin activity ([9]; vs Caerulein alone): dramatic reduction | Serum lipase ([9]; vs Caerulein alone): dramatic reduction | Sodium Taurocholate-induced acute pancreatitis, overall outcome [10]: rescues mice
